Tests used:
Experiment in all cases: NCI60 single-dose SRB assay
Assay type in all cases: cell-based, human
[1] = system: A549/ATCC; conditions: Non-Small Cell Lung Cancer, 10 μM
Description: (§1) Compounds 19 and 20 were supplied to National Cancer Institute (USA), for sulforhodamine B (SRB) assay and anticancer screening. Single-dose (10 µM) assay results for compounds 19 and 20 were provided as a mean of percent growth (% G) and growth inhibition (% GI) against 60 cell lines of nine types of cancers and are tabulated in Table 4. […] Both the compounds 19 and 20 were also found active on UO-31 renal cancer cell line with % GI of 21.18 and 29.95, respectively.
(§2) Compounds 19 and 20 were supplied to National Cancer Institute (Bethesda, Maryland, USA), for in vitro sulforhodamine B (SRB) assay, anticancer screening on 60 cell lines of cancers of leukemia, melanoma, and tumors of the kidney, brain, breast, lung, colon, ovary, and prostate, as per their standard protocol. One dose anticancer results (NCI, USA) of compounds 19 and 20 are provided in the Supplementary Materials.

[2] = system: NCI-H23; conditions: NCI-H23, Non-Small Cell Lung Cancer, 10 μM
Description: as §1, §2

[3] = system: 786-0; conditions: 786-0, Renal Cancer, 10 μM
Description: as §1, §2

[4] = system: SK-OV-3; conditions: SK-OV-3, Ovarian Cancer, 10 μM
Description: as §1, §2

[5] = system: NCI/ADR-RES; conditions: Ovarian Cancer, 10 μM
Description: as §1, §2

[6] = system: SW-620; conditions: SW-620, Colon Cancer, 10 μM
Description: as §1, §2

[7] = system: NCI-H322M; conditions: Non-Small Cell Lung Cancer, 10 μM
Description: as §1, §2

[8] = system: MOLT-4; conditions: MOLT-4, Leukemia, 10 μM
Description: as §1, §2

[9] = system: NCI-H226; conditions: NCI-H226, Non-Small Cell Lung Cancer, 10 μM
Description: as §1, §2

[10] = system: IGROV1; conditions: IGROV1, Ovarian Cancer, 10 μM
Description: as §1, §2

[11] = system: DU-145; conditions: DU-145, Prostate Cancer, 10 μM
Description: as §1, §2

[12] = system: HOP-92; conditions: HOP-92, Non-Small Cell Lung Cancer, 10 μM
Description: as §1, §2

[13] = system: K-562; conditions: K-562, Leukemia, 10 μM
Description: as §1, §2

[14] = system: SF-295; conditions: SF-295, CNS Cancer, 10 μM
Description: as §1, §2

[15] = system: HCC-2998; conditions: HCC-2998, Colon Cancer, 10 μM
Description: as §1, §2

[16] = system: SNB-75; conditions: SNB-75, CNS Cancer, 10 μM
Description: as §1, §2

[17] = system: RPMI-8226; conditions: RPMI-8226, Leukemia, 10 μM
Description: as §1, §2

[18] = system: PC-3; conditions: PC-3, Prostate Cancer, 10 μM
Description: as §1, §2

[19] = system: COLO 205; conditions: COLO 205, Colon Cancer, 10 μM
Description: as §1, §2

[20] = system: T-47D; conditions: Breast Cancer, 10 μM
Description: as §1, §2

[21] = system: HT29; conditions: HT29, Colon Cancer, 10 μM
Description: as §1, §2

[22] = system: OVCAR-8; conditions: OVCAR-8, Ovarian Cancer, 10 μM
Description: as §1, §2

[23] = system: CAKI-1; conditions: CAKI-1, Renal Cancer, 10 μM
Description: as §1, §2

[24] = system: U251; conditions: U251, CNS Cancer, 10 μM
Description: as §1, §2

[25] = system: UACC-62; conditions: UACC-62, Melanoma, 10 μM
Description: as §1, §2

[26] = system: KM12; conditions: KM12, Colon Cancer, 10 μM
Description: as §1, §2

[27] = system: OVCAR-3; conditions: OVCAR-3, Ovarian Cancer, 10 μM
Description: as §1, §2

[28] = system: HL-60(TB); conditions: Leukemia, 10 μM
Description: as §1, §2

[29] = system: M14; conditions: M14, Melanoma, 10 μM
Description: as §1, §2

[30] = system: SK-MEL-2; conditions: SK-MEL-2, Melanoma, 10 μM
Description: as §1, §2

[31] = system: MDA-MB-468; conditions: MDA-MB-468, Breast Cancer, 10 μM
Description: as §1, §2

NS(=O)(=O)c1ccc(N2CC(c3nc4ccccc4o3)CC2=O)cc1 (stereo not drawn) [Compound 20, 4-(4-(Benzo[d]oxazol-2-yl)-2-oxopyrrolidin-1-yl)benzenesulfonamide]
% G [1]: 95.28%
% GI [1]: 4.72%
% G [2]: 92.19%
% GI [2]: 7.81%
% G [3]: 98.99%
% GI [3]: 1.01%
% G [4]: 94.77%
% GI [4]: 5.23%
% G [5]: 101.45%
% GI [5]: −1.45%
% G [6]: 102.95%
% GI [6]: −2.95%
% G [7]: 99.10%
% GI [7]: 0.90%
% G [8]: 92.47%
% GI [8]: 7.53%
% G [9]: 92.75%
% GI [9]: 7.25%
% G [10]: 101.63%
% GI [10]: −1.63%
% G [11]: 111.62%
% GI [11]: −11.62%
% G [12]: 77.78%
% GI [12]: 22.22%
% G [13]: 98.83%
% GI [13]: 1.17%
% G [14]: 93.71%
% GI [14]: 6.29%
% G [15]: 100.24%
% GI [15]: −0.24%
% G [16]: 68.12%
% GI [16]: 31.88%
% G [17]: 103.53%
% GI [17]: −3.53%
% G [18]: 88.11%
% GI [18]: 11.89%
% G [19]: 104.05%
% GI [19]: −4.05%
% G [20]: 83.24%
% G [21]: 103.23%
% GI [21]: −3.23%
% G [22]: 97.49%
% GI [22]: 2.51%
% G [23]: 92.35%
% GI [23]: 7.65%
% G [24]: 95.21%
% GI [24]: 4.79%
% G [25]: 92.78%
% GI [25]: 7.22%
% G [26]: 101.16%
% GI [26]: −1.16%
% G [27]: 98.53%
% GI [27]: 1.47%
% G [28]: 96.15%
% GI [28]: 3.85%
% G [29]: 98.58%
% GI [29]: 1.42%
% G [30]: 111.54%
% GI [30]: −11.54%
% G [31]: 100.34%
% GI [31]: −0.34%

O=C1CC(c2nc3ccccc3o2)CN1c1ccc([N+](=O)[O-])cc1 (stereo not drawn) [Compound 19, 4-(Benzo[d]oxazol-2-yl)-1-(4-nitrophenyl)pyrrolidin-2-one]
% G [1]: 100.60%
% GI [1]: −0.60%
% G [2]: 93.07%
% GI [2]: 6.93%
% G [3]: 104.06%
% GI [3]: −4.06%
% G [4]: 88.34%
% GI [4]: 11.66%
% G [5]: 98.37%
% GI [5]: 1.63%
% G [6]: 102.52%
% GI [6]: −2.52%
% G [7]: 94.18%
% GI [7]: 5.82%
% G [8]: 93.64%
% GI [8]: 6.36%
% G [9]: 98.63%
% GI [9]: 1.37%
% G [10]: 104.14%
% GI [10]: −4.14%
% G [11]: 110.09%
% GI [11]: −10.09%
% G [12]: 104.72%
% GI [12]: −4.72%
% G [13]: 98.41%
% GI [13]: 1.59%
% G [14]: 98.21%
% GI [14]: 1.79%
% G [15]: 102.05%
% GI [15]: −2.05%
% G [16]: 64.51%
% GI [16]: 35.49%
% G [17]: 101.28%
% GI [17]: −1.28%
% G [18]: 91.14%
% GI [18]: 8.86%
% G [19]: 103.79%
% GI [19]: −3.79%
% G [20]: 80.01%
% GI [20]: 19.99%
% G [21]: 99.25%
% GI [21]: 0.75%
% G [22]: 101.95%
% GI [22]: −1.95%
% G [23]: 97.19%
% GI [23]: 2.81%
% G [24]: 100.97%
% GI [24]: −0.97%
% G [25]: 97.59%
% GI [25]: 2.41%
% G [26]: 105.43%
% GI [26]: −5.43%
% G [27]: 98.56%
% GI [27]: 1.44%
% G [28]: 100.09%
% GI [28]: −0.09%
% G [29]: 101.37%
% GI [29]: −1.37%
% G [30]: 102.31%
% GI [30]: −2.31%
% G [31]: 98.03%
% GI [31]: 1.97%
